Measured values reported in patent US8673869B2, “Determinants of sensitivity to chemotherapeutic agents” (Western Sydney Local Health District, priority 2004, dated 2014).

B1: siRNA41: 19 bp siRNA targeting the region of the ANKRD1 open reading frame encoding the N-terminus, expressed from pSilencer 2.1-U6 hygro vector (nucleic acid)
chain: GATCCCAGTTCCAGTTGTGAAGGAATTCAAGAGATTCCTTCACAACTGGAACTTTTTTTGGAAA
modifications: the letters are possibly those of the target site
notes: 19 bp siRNA targeting the region of the ANKRD1 open reading frame encoding the N-terminus, expressed from pSilencer 2.1-U6 hygro vector
B2: siRNA77: 19 bp siRNA targeting the region of the ANKRD1 open reading frame encoding the C-terminus, expressed from pSilencer 2.1-U6 hygro vector (nucleic acid)
chain: GATCCCGTGGAACCAAAGCAATATTCTTCAAGAGAGAATATTGCTTTGGTTCCATTTTTTGGAAA
modifications: the letters are possibly those of the target site
notes: 19 bp siRNA targeting the region of the ANKRD1 open reading frame encoding the C-terminus, expressed from pSilencer 2.1-U6 hygro vector
B3: siRNA58: 19 bp siRNA targeting the central portion of the ANKRD1 coding region, expressed from pSilencer 2.1-U6 hygro vector (nucleic acid)
chain: GATCCCGTTCCGTGATATGCTTGAATTTCAAGAGAATTCAAGCATATCACGGAATTTTTTGGAA
modifications: the letters are possibly those of the target site
notes: 19 bp siRNA targeting the central portion of the ANKRD1 coding region, expressed from pSilencer 2.1-U6 hygro vector

Legend:
[1] = test system: human ovarian and breast cell lines; assay: Relative cisplatin sensitivity (IC37) by MTS proliferation assay; type: cell-based; details: 72 hr drug exposure, FIG. 7B
Method: FIG. 7. Expression of ANKRD1 in ovarian and breast cell lines. RNA was extracted from a range of normal and malignant ovarian and breast cell lines. ANKRD1 expression was measured by real-time PCR. A. Results are shown as relative mRNA levels, corrected for human P0 (acidic phosphoprotein P0; also known as 36B4, part of the 60S ribosomal RNA complex) and 18S rRNA. All cell lines are human. HOSE 17.1 and BRE-80 are normal ovarian and breast cell lines respectively; the remaining cell lines are malignant. B. Cisplatin (CDDP) sensitivity was determined for 13 of the cell lines. Survival was determined by MTS assay after exposing the cells to drug for 72 hr. The IC37 is shown for each cell line, results are the mean determined from between two and seven independent experiments. Asterix indicates IC37 not determined. C. Association between growth inhibition by cisplatin (IC37) and expression of ANKRD1 mRNA in 13 cell lines.
Relative cisplatin sensitivity was measured in 13 cell lines using a colorimetric proliferation assay. Cells were seeded into 96-well plates in a volume of 100 μl at 500 to 2000 cells per well. […] IC37 values were calculated for each cell line from survival curves, using data generated from between two to seven independent experiments.

SC2 cells [2] = assay: Cisplatin sensitivity by colony formation (clonogenic assay); type: cell-based, Chinese hamster; details: 10 uM cisplatin for 2 hr, colony formation over 6 days, percentage of vehicle-treated control
Method: (§1) FIG. 2. Cisplatin sensitivity of CHO cell lines. Parental CHO-K1 and the platinum-sensitive clone SC2 were exposed to a range of cisplatin (CDDP) concentrations for 2 hrs. The drug was then removed and the surviving cell fraction was determined by colony formation over 6 days. Colonies were fixed, stained with 0.1% crystal violet and counted. The results are expressed as a percentage of vehicle-treated control (mean and standard error from duplicate plates in at least three separate experiments) at differing cisplatin (CDDP) concentrations. The present inventors have used a novel approach to identify genes that determine sensitivity to platinum-based chemotherapeutic agents. This strategy utilized the mutant Chinese hamster ovary (CHO) cell line SC2 which is more sensitive to platinum than the parent CHO-K1 cell line. Parental CHO-K1 and mutant CHO cell lines were provided as a gift from Dr I Hickson and Dr C Robson (Imperial Cancer Research Fund, Oxford UK) (Robson, C, et al, 1985). The strategy adopted is outlined in FIG. 1. CHO-K1 cells were mutagenised with ethyl methane sulphonate (EMS). Mutants with altered sensitivity to cisplatin were isolated using replica plating. […] The drug was then removed and the surviving cell fraction was determined by colony formation over 6 days. Colonies were fixed, stained with 0.1% crystal violet and counted. […]

CHO-K1 cells = assay: as above; type: cell-based, Chinese hamster; details: 10 uM cisplatin for 2 hr, colony formation over 6 days, percentage of vehicle-treated control
Method: as §1

SC2 cells [3] = assay: Clonogenic survival of ANKRD1-transfected SC2 clones exposed to cisplatin; type: cell-based, Chinese hamster; details: SC2 clones transfected with rat ANKRD1 cDNA vs untransfected and vector control, 6 μM cisplatin, FIG. 5
Method: FIG. 5. […] Rat ANKRD1 cDNA was transfected into SC2 cells and transfected clones selected. ANKRD1-transfected clones were exposed to 6 μM cisplatin and the surviving fraction was measured by clonogenic assay. Survival in 4 transfected clones (SC2+ANKRD1) was compared with untransfected SC2 cells and empty vector-control transfected SC2 cells (SC2+vector).
To determine whether ANKRD1 has the ability to decrease sensitivity to cisplatin, rat ANKRD1 cDNA in the pcDNA3.1 expression vector, under the control of a CMV promoter, (a gift from the laboratory of Prof. L. Kedes, University of Southern California, USA) was transfected into the ANKRD1-deficient, platinum-sensitive SC2 mutant using Lipofectamine 2000 (Invitrogen Life Technologies, Carlsbad, Calif., USA). Transfected clones were selected and maintained in 400 μg/ml G-418 (Gibco-BRL).

[4] = test system: CHO-K1 cells and SC2 cells; assay: Carboplatin and oxaliplatin cell survival by modified MTS assay; type: cell-based, Chinese hamster; details: 2 hr drug exposure, 6 days incubation, FIG. 9
Method: FIG. 9. Effect of carboplatin (A) and oxaliplatin (B) on cell survival in CHO-K1 cells (diamonds) and SC2 cells (squares). Cell survival was measured by modified MTS assay. Results are expressed as a percentage of the vehicle-treated control, as a mean and standard error of triplicate wells from six independent experiments. Results were subjected to a paired t-test where * is p<0.05 and ** is p<0.005.
CHO-K1 and SC2 cells were each seeded into 24-well plates, incubated overnight then exposed to a range of concentrations of carboplatin or oxaliplatin for 2 hr. The drugs were removed, wells washed and the growth media replaced. Cells were incubated for 6 days and cell proliferation measured using a modified colorimetric MTS (3-(4,5-dimethylthiazol-2-yl)-5-(3-carboxy-methoxyphenyl)-2-(4-sulfophenyl)-2H-tetrazolium, inner salt) proliferation assay. MTS solution was added to each well and colour development measured on a plate reader at 490 nm.

ANKRD1 = ANKRD1 mRNA by real-time PCR in siRNA transfected CHO-K1 cells; type: cell-based, Chinese hamster; details: pools of stably transfected CHO-K1 cells, relative to parent CHO-K1, FIG. 6A
Method: FIG. 6. Increased sensitivity to cisplatin in CHO-K1 cells following reduction of ANKRD1 expression by siRNA. CHO-K1 were transfected with one of three inserts designed to knock-down ANKRD1 expression by targeting regions of the open reading frame encoding the N-terminus (siRNA41; SEQ ID NO: 5), the central portion (siRNA58; SEQ ID NO: 6) or the C-terminus (siRNA77; SEQ ID NO: 7). Pools (P1) of siRNA transfected cells were selected and maintained in hygromycin B. A. ANKRD1 mRNA was measured by real-time PCR. Results are shown as a percentage of the parent CHO-K1 ANKRD1 mRNA levels and corrected for rodent GAPDH (glyceraldehyde-3-phosphate dehydrogenase) and 18S rRNA. B. Cisplatin (CDDP) sensitivity in CHO-K1 and siRNA transfected cells was measured by clonogenic assay. The results are expressed as the mean and standard error of duplicate plates from at least three separate experiments.
To confirm that ANKRD1 was able to modulate platinum sensitivity, the converse hypothesis was tested, that decreasing ANKRD1 expression in the resistant, CHO-K1 cell line would increase sensitivity. Three 19 bp siRNA oligonucleotides were designed to regions encoding the N- and C-terminus as well as to a central portion of the coding region of the CHO ANKRD1 sequence. The sequences of the sense strands of these siRNA oligonucleotides are shown in SEQ ID NOs: 5 (siRNA41), 6 (siRNA58) and 7 (siRNA77). […]
To examine ANKRD1 mRNA expression, 100 ng of cDNA used as templates in real-time PCR using the ABI PRISM 7700 Sequence Detection System (PE Applied Biosystems). Samples were made up in a final volume of 25 μL with Platinum Quantitative PCR Supermix-UDG (Invitrogen) and 250 nM of each primer set. […] Relative concentrations of ANKRD1 and housekeeping genes were determined by comparison of Ct values to a standard curve produced using a sample containing cDNA produced from RNA of known concentration. […]

Molecule | resistance of CHO-K1 cells compared to SC2 cells [4] | ANKRD1 expression (mRNA) (ANKRD1) | further results
N.N.[Cl][Pt][Cl] [cisplatin] |  |  | relative cisplatin response (IC37) ([1]; COLO 316, T-47D and MCF-7 cell lines): among the most resistant; relative cisplatin response (IC37) ([1]; HOSE 17.1, A2780 and PEO1 cell lines): amongst the most sensitive; cell survival (SC2 cells [2]): less than 2%; cell survival (CHO-K1 cells): greater than 80%; resistance to cisplatin after ANKRD1 transfection (SC2 cells [3]): increased resistance
N.N.O=C([O-])C1(C(=O)[O-])CCC1.[Pt+2] [carboplatin] | significantly more resistant |  | 
O=C1[O][Pt]2([NH][C@@H]3CCCC[C@H]3[NH]2)[O]C1=O [oxaliplatin] | significantly more resistant |  | 
B1 |  | virtually ablated | 
B2 |  | similarly reduced | 
B3 |  | similarly reduced | 
